Experimental findings from patent US20260022142A1, “MACROCYCLIC IMMUNOMODULATORS” (Bristol-Myers Squibb Company, priority 2022, published 2026) are described below.

Bridge positions count the residues as written; N and C are the ends. Square brackets hold non-standard residues; d marks the D form. Peptide text beside a SMILES is read from it. * marks the point of attachment. Phe(4-CH2CH2COOH) = N[C@@H](Cc1ccc(CCC(=O)O)cc1)C(=O)O; Phe(4-CONH2) = NC(=O)c1ccc(C[C@H](N)C(=O)O)cc1; Phe(4-COOH) = N[C@@H](Cc1ccc(C(=O)O)cc1)C(=O)O; Bip = N[C@@H](Cc1ccc(-c2ccccc2)cc1)C(=O)O; Phe(4-NH2) = Nc1ccc(C[C@H](N)C(=O)O)cc1; Phe(3-F) = N[C@@H](Cc1cccc(F)c1)C(=O)O; Phe(3-Me) = Cc1cccc(C[C@H](N)C(=O)O)c1; His(τ-Me) = Cn1cnc(C[C@H](N)C(=O)O)c1; His(π-Me) = Cn1cncc1C[C@H](N)C(=O)O; Val(3-OH) = CC(C)(O)[C@H](N)C(=O)O; Val(3-F) = CC(C)(F)[C@H](N)C(=O)O; 3Pal = N[C@@H](Cc1cccnc1)C(=O)O; 4Pal = N[C@@H](Cc1ccncc1)C(=O)O; Cha = N[C@@H](CC1CCCCC1)C(=O)O; Cit = NC(=O)NCCC[C@H](N)C(=O)O; Carboxymethyl = O=C(O)C*; Orn = NCCC[C@H](N)C(=O)O; Aun = NCCCCCCCCCCC(=O)O; Dab = NCC[C@H](N)C(=O)O; Dap = NC[C@H](N)C(=O)O

One assay deals with T1, PD-1/PD-L1 interaction (PE-labeled human PD-L1-Ig binding to Jurkat cell line over-expressing human PD-1) (Homo sapiens, UniProt Q15116).
T1 construct: expressed in transfected cells; host or cells: Jurkat
T1 sequence (Q15116 25-288): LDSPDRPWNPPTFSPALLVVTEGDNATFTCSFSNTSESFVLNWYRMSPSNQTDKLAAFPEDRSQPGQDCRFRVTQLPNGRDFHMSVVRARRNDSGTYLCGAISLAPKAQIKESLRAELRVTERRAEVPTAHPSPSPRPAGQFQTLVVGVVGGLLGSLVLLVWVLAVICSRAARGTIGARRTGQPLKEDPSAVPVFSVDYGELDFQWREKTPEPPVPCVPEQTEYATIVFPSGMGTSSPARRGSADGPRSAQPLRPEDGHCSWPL
The assay can be described thus: Jurkat-PD-1 Cell Binding High-Content Screening Assay (CBA). Format: cell-based. The note with it: Jurkat cell line over-expressing human PD-1; PE-labeled PD-L1-Ig 20 nM final; read-out: Jurkat hPD1-PDL1 IC50. The method, boiled down:
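Read-out is high-content imaging of cell-bound phycoerythrin-tagged PD-L1-Ig on fixed, Hoechst-counterstained Jurkat cells that over-express human PD-1. Compound exposure lasts 2 h at 37° C before the labeled ligand (20 nM final) is added for a further hour.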
As to `Cc1cccc(C[C@@H]2NC(=O)[C@H](CC(=O)O)NC(=O)[C@H](Cc3ccc(C(=O)O)cc3)NC(=O)[C@H](Cc3ccncc3)NC(=O)CSC[C@@H](C(=O)N[C@@H](CCN)C(=O)NCCCCCCCCCCC(=O)O)NC(=O)[C@H]([C@@H](C)O)NC(=O)[C@H](C(C)C)NC(=O)[C@H](CC(C)C)NC(=O)[C@H](CCN)NC(=O)[C@@H](CC(C)C)NC(=O)[C@H](CCCN)NC(=O)[C@H](Cc3ccc(OCC(=O)O)cc3)NC(=O)[C@H](Cc3ccc(-c4ccccc4)cc3)NC(=O)[C@H](Cc3ccc(OCC(=O)O)cc3)NC2=O)c1` [Compound 2143] ({CH2CO}-[4Pal][Phe(4-COOH)]D[Phe(3-Me)]Y(Carboxymethyl)[Bip]Y(Carboxymethyl)[Orn][dL][Dab]LVTC[Dab][Aun]-OH; thioether N-14), the IC50 is 12.6 nM.

Turning to `Cc1cccc(C[C@@H]2NC(=O)[C@H](CC(=O)O)NC(=O)[C@H](Cc3ccc(CCC(=O)O)cc3)NC(=O)[C@H](CCN)NC(=O)CSC[C@@H](C(=O)N[C@@H](CCN)C(=O)NCCCCCCCCCCC(=O)O)NC(=O)[C@H](CO)NC(=O)[C@H](C(C)(C)O)NC(=O)[C@H](CC3CCCCC3)NC(=O)[C@H](CCN)NC(=O)[C@@H](CC(C)C)NC(=O)[C@H](CCCN)NC(=O)[C@H](Cc3ccc(OCC(=O)O)cc3)NC(=O)[C@H](Cc3ccc(-c4ccccc4)cc3)NC(=O)[C@H](Cc3cccc(F)c3)NC2=O)c1` [Compound 2144] ({CH2CO}-[Dab][Phe(4-CH2CH2COOH)]D[Phe(3-Me)][Phe(3-F)][Bip]Y(Carboxymethyl)[Orn][dL][Dab][Cha][Val(3-OH)]SC[Dab][Aun]-OH; thioether N-14), the IC50 is 7.3 nM. Turning to `Cc1cccc(C[C@@H]2NC(=O)[C@H](CC(=O)O)NC(=O)[C@H](Cc3ccc(OCC(=O)O)cc3)NC(=O)[C@H](CCCNC(=N)N)NC(=O)CSC[C@@H](C(=O)N[C@@H](CCN)C(=O)NCCCCCCCCCCC(=O)O)NC(=O)[C@H](CCC(N)=O)NC(=O)[C@H](C(C)(C)F)NC(=O)[C@H](CC3CCCCC3)NC(=O)[C@H](CCN)NC(=O)[C@@H](CC(C)C)NC(=O)[C@H](CCCN)NC(=O)[C@H](Cc3ccc(OCC(=O)O)cc3)NC(=O)[C@H](Cc3ccc(-c4ccccc4)cc3)NC(=O)[C@H](Cc3ccc(OCC(=O)O)cc3)NC2=O)c1` [Compound 2145] ({CH2CO}-RY(Carboxymethyl)D[Phe(3-Me)]Y(Carboxymethyl)[Bip]Y(Carboxymethyl)[Orn][dL][Dab][Cha][Val(3-F)]QC[Dab][Aun]-OH; thioether N-14), the IC50 worked out at 2.1 nM. The same measure, in the same setting: next, `Cc1cccc(C[C@@H]2NC(=O)[C@H](CC(=O)O)NC(=O)[C@H](Cc3ccc(OCC(=O)O)cc3)NC(=O)[C@H](Cc3ccc(N)cc3)NC(=O)CSC[C@@H](C(=O)N[C@@H](CCN)C(=O)NCCCCCCCCCCC(=O)O)NC(=O)[C@H]([C@@H](C)O)NC(=O)[C@H](C(C)C)NC(=O)[C@H](CC3CCCCC3)NC(=O)[C@H](CCN)NC(=O)[C@@H](CC(C)C)NC(=O)[C@H](CCCN)NC(=O)[C@H](Cc3ccc(OCC(=O)O)cc3)NC(=O)[C@H](Cc3ccc(-c4ccccc4)cc3)NC(=O)[C@H](Cc3ccc(OCC(=O)O)cc3)NC2=O)c1` [Compound 2147] ({CH2CO}-[Phe(4-NH2)]Y(Carboxymethyl)D[Phe(3-Me)]Y(Carboxymethyl)[Bip]Y(Carboxymethyl)[Orn][dL][Dab][Cha]VTC[Dab][Aun]-OH; thioether N-14): 17.2 nM; `Cc1cccc(C[C@@H]2NC(=O)[C@H](CC(=O)O)NC(=O)[C@H](Cc3ccc(OCC(=O)O)cc3)NC(=O)[C@H](Cc3cncn3C)NC(=O)CSC[C@@H](C(=O)N[C@@H](CCN)C(=O)NCCCCCCCCCCC(=O)O)NC(=O)[C@H]([C@@H](C)O)NC(=O)[C@H](C(C)C)NC(=O)[C@H](CC3CCCCC3)NC(=O)[C@H](CCN)NC(=O)[C@@H](CC(C)C)NC(=O)[C@H](CCCN)NC(=O)[C@H](Cc3ccc(OCC(=O)O)cc3)NC(=O)[C@H](Cc3ccc(-c4ccccc4)cc3)NC(=O)[C@H](Cc3ccc(OCC(=O)O)cc3)NC2=O)c1` [Compound 2148] ({CH2CO}-[His(π-Me)]Y(Carboxymethyl)D[Phe(3-Me)]Y(Carboxymethyl)[Bip]Y(Carboxymethyl)[Orn][dL][Dab][Cha]VTC[Dab][Aun]-OH; thioether N-14): 25.4 nM. Same read-out and setting: with `Cc1cccc(C[C@@H]2NC(=O)[C@H](CC(=O)O)NC(=O)[C@H](Cc3ccc(OCC(=O)O)cc3)NC(=O)[C@H](Cc3cccnc3)NC(=O)CSC[C@@H](C(=O)N[C@@H](CCN)C(=O)NCCCCCCCCCCC(=O)O)NC(=O)[C@H](CO)NC(=O)[C@H](C(C)C)NC(=O)[C@H](CC3CCCCC3)NC(=O)[C@H](CCN)NC(=O)[C@@H](CC(C)C)NC(=O)[C@H](CCCN)NC(=O)[C@H](Cc3ccc(OCC(=O)O)cc3)NC(=O)[C@H](Cc3ccc(-c4ccccc4)cc3)NC(=O)[C@H](C(C)(C)O)NC2=O)c1` [Compound 2149] ({CH2CO}-[3Pal]Y(Carboxymethyl)D[Phe(3-Me)][Val(3-OH)][Bip]Y(Carboxymethyl)[Orn][dL][Dab][Cha]VSC[Dab][Aun]-OH; thioether N-14) the figure was 55.1 nM; with `Cc1cccc(C[C@@H]2NC(=O)[C@H](CC(=O)O)NC(=O)[C@H](Cc3ccc(OCC(=O)O)cc3)NC(=O)[C@H](Cc3cn(C)cn3)NC(=O)CSC[C@@H](C(=O)N[C@@H](CCN)C(=O)NCCCCCCCCCCC(=O)O)NC(=O)[C@H](CO)NC(=O)[C@H](C(C)C)NC(=O)[C@H](CC3CCCCC3)NC(=O)[C@H](CCN)NC(=O)[C@@H](CC(C)C)NC(=O)[C@H](CCCN)NC(=O)[C@H](Cc3ccc(OCC(=O)O)cc3)NC(=O)[C@H](Cc3ccc(-c4ccccc4)cc3)NC(=O)[C@H](C(C)(C)O)NC2=O)c1` [Compound 2150] ({CH2CO}-[His(τ-Me)]Y(Carboxymethyl)D[Phe(3-Me)][Val(3-OH)][Bip]Y(Carboxymethyl)[Orn][dL][Dab][Cha]VSC[Dab][Aun]-OH; thioether N-14), 565 nM; with `Cc1cccc(C[C@@H]2NC(=O)[C@H](CC(=O)O)NC(=O)[C@H](Cc3ccc(OCC(=O)O)cc3)NC(=O)[C@H](Cc3ccncc3)NC(=O)CSC[C@@H](C(=O)N[C@@H](CCN)C(=O)NCCCCCCCCCCC(=O)O)NC(=O)[C@H]([C@@H](C)O)NC(=O)[C@H](C(C)C)NC(=O)[C@H](CC3CCCCC3)NC(=O)[C@H](CCN)NC(=O)[C@@H](CC(C)C)NC(=O)[C@H](CCCN)NC(=O)[C@H](Cc3ccc(OCC(=O)O)cc3)NC(=O)[C@H](Cc3ccc(-c4ccccc4)cc3)NC(=O)[C@H](C(C)(C)O)NC2=O)c1` [Compound 2151] ({CH2CO}-[4Pal]Y(Carboxymethyl)D[Phe(3-Me)][Val(3-OH)][Bip]Y(Carboxymethyl)[Orn][dL][Dab][Cha]VTC[Dab][Aun]-OH; thioether N-14), 40.6 nM.

In the case of `Cc1cccc(C[C@@H]2NC(=O)[C@H](CC(=O)O)NC(=O)[C@H](Cc3ccc(OCC(=O)O)cc3)NC(=O)[C@H](Cc3cncn3C)NC(=O)CSC[C@@H](C(=O)N[C@@H](CCN)C(=O)NCCCCCCCCCCC(=O)O)NC(=O)[C@H]([C@@H](C)O)NC(=O)[C@H](C(C)C)NC(=O)[C@H](CC3CCCCC3)NC(=O)[C@H](CCN)NC(=O)[C@@H](CC(C)C)NC(=O)[C@H](CCCN)NC(=O)[C@H](Cc3ccc(OCC(=O)O)cc3)NC(=O)[C@H](Cc3ccc(-c4ccccc4)cc3)NC(=O)[C@H](C(C)(C)O)NC2=O)c1` [Compound 2152] ({CH2CO}-[His(π-Me)]Y(Carboxymethyl)D[Phe(3-Me)][Val(3-OH)][Bip]Y(Carboxymethyl)[Orn][dL][Dab][Cha]VTC[Dab][Aun]-OH; thioether N-14), the IC50 is 73.6 nM.

With `Cc1cccc(C[C@@H]2NC(=O)[C@H](CC(=O)O)NC(=O)[C@H](Cc3ccc(OCC(=O)O)cc3)NC(=O)[C@H](CN)NC(=O)CSC[C@@H](C(=O)N[C@@H](CCN)C(=O)NCCCCCCCCCCC(=O)O)NC(=O)[C@H]([C@@H](C)O)NC(=O)[C@H](C(C)(C)O)NC(=O)[C@H](CC3CCCCC3)NC(=O)[C@H](CCN)NC(=O)[C@@H](CC(C)C)NC(=O)[C@H](CCCN)NC(=O)[C@H](CCCNC(N)=O)NC(=O)[C@H](Cc3ccc(-c4ccccc4)cc3)NC(=O)[C@H](C(C)C)NC2=O)c1` [Compound 2153] ({CH2CO}-[Dap]Y(Carboxymethyl)D[Phe(3-Me)]V[Bip][Cit][Orn][dL][Dab][Cha][Val(3-OH)]TC[Dab][Aun]-OH; thioether N-14), the IC50 is 23.4 nM. As to `Cc1cccc(C[C@@H]2NC(=O)[C@H](CC(=O)O)NC(=O)[C@H](Cc3ccc(OCC(=O)O)cc3)NC(=O)[C@H](Cc3ccc(C(N)=O)cc3)NC(=O)CSC[C@@H](C(=O)N[C@@H](CCN)C(=O)NCCCCCCCCCCC(=O)O)NC(=O)[C@H](CCC(N)=O)NC(=O)[C@H](C(C)(C)O)NC(=O)[C@H](CC3CCCCC3)NC(=O)[C@H](CCN)NC(=O)[C@@H](CC(C)C)NC(=O)[C@H](CCCN)NC(=O)[C@H](Cc3ccc(OCC(=O)O)cc3)NC(=O)[C@H](Cc3ccc(-c4ccccc4)cc3)NC(=O)[C@H](Cc3ccc(OCC(=O)O)cc3)NC2=O)c1` [Compound 2154] ({CH2CO}-[Phe(4-CONH2)]Y(Carboxymethyl)D[Phe(3-Me)]Y(Carboxymethyl)[Bip]Y(Carboxymethyl)[Orn][dL][Dab][Cha][Val(3-OH)]QC[Dab][Aun]-OH; thioether N-14), the IC50 turned out to be 9.2 nM.

The same assay, now with this note: Jurkat hPD1-PDL1 IC50, Jurkat cell line over-expressing human PD-1; PE-labeled PD-L1-Ig 20 nM final.
`Cc1cccc(C[C@@H]2NC(=O)[C@H](CC(=O)O)NC(=O)[C@H](Cc3ccc(OCC(=O)O)cc3)NC(=O)[C@H](Cc3ccc(C(N)=O)cc3)NC(=O)CSC[C@@H](C(=O)N[C@@H](CCN)C(=O)NCCCCCCCCCCC(=O)O)NC(=O)[C@H]([C@@H](C)O)NC(=O)[C@H](C(C)C)NC(=O)[C@H](CC3CCCCC3)NC(=O)[C@H](CCN)NC(=O)[C@@H](CC(C)C)NC(=O)[C@H](CCCN)NC(=O)[C@H](Cc3ccc(OCC(=O)O)cc3)NC(=O)[C@H](Cc3ccc(-c4ccccc4)cc3)NC(=O)[C@H](Cc3ccc(OCC(=O)O)cc3)NC2=O)c1` [Compound 2146] ({CH2CO}-[Phe(4-CONH2)]Y(Carboxymethyl)D[Phe(3-Me)]Y(Carboxymethyl)[Bip]Y(Carboxymethyl)[Orn][dL][Dab][Cha]VTC[Dab][Aun]-OH; thioether N-14) yielded an IC50 of 13.2 nM.
